{"source": "patent US8071368B2", "about": "“Methods for promoting growth and survival of insulin-secreting cells” (Alizé Pharma SAS, priority 2001, dated 2011)", "key": {"HIT-T15 cells [1]": {"test_system": "HIT-T15 cells", "assay": "HIT-T15 cell proliferation, BrdU incorporation", "format": "cell-based", "details": "for effect on unacylated ghrelin-induced cell proliferation: preincubation, unacylated ghrelin 100 nM, NF449 10 μM, PTX 50 ng/ml", "experimental": "This effect was similar to that observed in cells cultured in normal conditions, i.e. in the presence of serum (15% HS, 2.5% FBS).\nTo investigate the signaling pathways involved in ghrelin mitogenic effect, the cells were preincubated (30 min) with NF449, a selective Gαs protein-coupled receptor antagonist.\nIn FIG. 8A to 8E, HIT-T15 cells were cultured in serum-free medium (Control) for 24 h, UAG alone or with NF449 and pertussis toxin (PTX) were added to the incubation medium for further 24 h. In FIG. 8A, cell proliferation was measured by BrdU uptake in cells cultured in the presence or absence of serum, UAG at the concentrations indicated. […] Data are expressed as the percentage relative to control and are the means±SEM of eight replicates within a single representative experiment that was repeated at least 3 times (*P<0.05,**P<0.01).\n(§1) In FIG. 9B, apoptosis is evaluated by counting condensed/fragmented Hoechst-stained nuclei (SF, serum-free medium). Values are expressed as percent of apoptotic cells and are the mean±SEM of duplicate determinations (500 cells each) of three independent experiments (*P<0.05; **P<0.01). In FIG. 9C, cell proliferation is assessed by BrdU uptake (ELISA). The results are expressed as percent of control (serum starved cells) and are the mean±SEM of three independent experiments (*P<0.05,**P<0.01). FIG. 9D illustrates ghrelin secretion in HIT-T15 conditioned medium following exposure to either serum, SF±cytokines. The results are the mean±SEM of three independent experiments, each performed in quadruplicate (*P<0.05). In FIG. 9E, apoptosis is determined by Hoechst 33258 of cells cultured for 48 h in the presence of serum or in SF medium alone with addition of an anti-ghrelin antibody (α-ghrelin Ab), (*P<0.05,**P<0.01 vs 0 μg/ml α-ghrelin Ab in each condition)."}, "HIT-T15 cell membranes": {"test_system": "HIT-T15 cell membranes", "assay": "125I-[Tyr4]-unacylated ghrelin binding to HIT-T15 cell membranes", "details": "unlabeled competitor", "text": "Binding is expressed as percentage of control (specific binding in the absence of unlabeled competitor);"}, "[2]": {"assay": "ghrelin and GH rhythms during three days fasting, GHRP-6 bolus, healthy volunteers", "format": "in vivo, human", "details": "1 μg/kg on the 3rd day of fasting", "experimental": "In order to understand the diurnal rhythms of ghrelin and GH secretion during fasting, a study was conducted on 10 healthy human volunteers with normal body mass index. […] Fasting rapidly induces a diurnal ghrelin rhythm that is followed by a similar GH rhythm. […] This phenomenon cannot be explained by changes in insulin, glucose or free fatty acid levels. Thus it appears that the metabolic effects of ghrelin are distinct from its effects on GH secretion.\nBy the use of the GH receptor antagonist pegvisomant, indirect evidence was provided that these changes in serum ghrelin levels are not regulated by the GH receptor. Finally, it was shown that administration of the synthetic GHS, GHRP-6, produced a decrease in peak ghrelin levels, but this effect was only observed after several hours, indicating the existence of a long-loop feedback system of GHS's on ghrelin secretion."}, "[3]": {"assay": "preprandial GHS administration in normal human beings with GH receptor antagonist pegvisomant", "format": "in vivo", "details": "1 μg/Kg i.v. preprandial", "text": "Because in this study GH-action was blocked by pegvisomant, these GHS-mediated metabolic changes on the “gastro-entero-hepatic axis” must be direct and non-pituitary mediated."}, "HIT-T15 cells [4]": {"test_system": "HIT-T15 cells", "assay": "HIT-T15 cell survival, MTT assay", "format": "cell-based", "details": "serum-free conditions and in the presence of cytokines"}, "[5]": {"assay": "16 h intravenous infusion of unacylated ghrelin in healthy males", "format": "in vivo, human", "details": "1.0 μg/Kg/h iv 16 h"}, "[6]": {"assay": "co-administration of unacylated ghrelin and ghrelin in normal human volunteers", "format": "in vivo", "details": "1 μg/kg iv at 0 min with ghrelin 1 μg/kg iv", "text": "Thus it appears that unacylated ghrelin is acting as a functional antagonist of the peripheral actions of ghrelin."}, "HIT-T15 cells [7]": {"test_system": "HIT-T15 cells", "assay": "HIT-T15 apoptosis, Hoechst 33258 staining", "format": "cell-based", "text": "Apoptosis is the main form of pancreatic β-cell death in animal models of type 1 diabetes mellitus. […] Moreover, they partially lost their capacity to form islet-like structures (FIG. 9A, upper panel, and 9B). Cytokines further increased apoptosis (˜27%), cells appearing smaller and unable to form islets (FIG. 9A, lower panel, and FIG. 9B). […] Accordingly, others have reported that ghrelin exerts proliferative and antiapoptotic effects at high concentrations […] in different cell types.\nas §1"}, "caspase-3": {"test_system": "caspase-3", "assay": "caspase-3 activation in HIT-T15 cells", "format": "cell-based", "details": "serum-starved and cytokine-treated cells, data not shown"}, "cAMP": {"test_system": "cAMP", "assay": "intracellular cAMP concentration in HIT-T15 cells", "format": "cell-based", "details": "100 nM, with IBMX", "experimental": "Initially, the unacylated ghrelin-induced cAMP intracellular variation was examined.\ncAMP induction by ghrelin was then evaluated at 15 min in either serum-free medium alone or with addition of IFN-γ/TNF-α in the presence of IBMX.\nThe results are the mean±SEM of three independent experiments performed in triplicate (*P<0.05 vs basal time point). FIG. 10B illustrates the cAMP levels in cells incubated in the presence of serum or in serum-free (SF) medium±unacylated ghrlein (100 nM each) alone or with IFN-γ/TNF-α combination (100 ng/ml and 200 ng/ml respectively). Data are the mean±SEM of at least three independent experiments performed in triplicate (*P<0.05)."}, "[8]": {"assay": "glucose and insulin after single intravenous human ghrelin in healthy young male volunteers", "format": "in vivo", "details": "1.0 μg/kg i.v. at 0', vs placebo"}}, "note": "Non-standard residues stand in square brackets, D forms with d. Residues, ends and D or L forms follow the SMILES beside them. No end group written: not given here. *: point of attachment. dTrp(2-Me) = Cc1[nH]c2ccccc2c1C[C@@H](N)C(=O)O; Octanoyl = CCCCCCCC(=O)*"}
{"compound": "O=C(Nc1cc(C(=O)Nc2ccc(S(=O)(=O)O)cc2S(=O)(=O)O)cc(C(=O)Nc2ccc(S(=O)(=O)O)cc2S(=O)(=O)O)c1)Nc1cc(C(=O)Nc2ccc(S(=O)(=O)O)cc2S(=O)(=O)O)cc(C(=O)Nc2ccc(S(=O)(=O)O)cc2S(=O)(=O)O)c1", "note": "[NF449, reference compound]", "values": [{"measurement": "effect on unacylated ghrelin-induced cell proliferation", "setting": "HIT-T15 cells [1]", "value": "complete blockade"}]}
{"compound": "Cc1[nH]c2ccccc2c1C[C@@H](NC(=O)[C@@H](N)Cc1cnc[nH]1)C(=O)N[C@@H](C)C(=O)N[C@@H](Cc1c[nH]c2ccccc12)C(=O)N[C@H](Cc1ccccc1)C(=O)N[C@@H](CCCCN)C(N)=O", "note": "[hexarelin] (H-H[dTrp(2-Me)]AW[dF]K-NH2)", "values": [{"measurement": "competition with 125I-labeled [Tyr4]-unacylated ghrelin for binding sites", "setting": "HIT-T15 cell membranes", "value": "competed"}]}
{"compound": "GHRP-6", "values": [{"measurement": "peak ghrelin levels", "setting": "[2]", "value": "attenuated peak ghrelin levels in the afternoon"}, {"measurement": "serum insulin concentrations", "setting": "[3]; in the presence of pegvisomant", "value": "impressive increase in serum insulin concentrations"}, {"measurement": "postprandial serum glucose levels", "setting": "[3]; only in the presence of pegvisomant", "value": "induces a postprandial increase in serum glucose levels"}]}
{"compound": "NH2Gly-Ser-Ser-Phe-Leu-Ser-Pro-Glu-His-Gln-Arg-Val-Gln-Gln-Arg-Lys-Glu-Ser-Lys-Lys-Pro-Pro-Ala-Lys-Leu-Gln-Pro-Arg (H-GSSFLSPEHQRVQQRKESKKPPAKLQPR) [unacylated ghrelin]", "values": [{"measurement": "cell viability (MTT)", "setting": "HIT-T15 cells [4]", "value": "significantly increased cell viability"}, {"measurement": "FFA profile", "setting": "[5]; post-prandially and at fasting", "value": "reduced both post-prandially (p<0.01) and at fasting"}, {"measurement": "glucagon profile", "setting": "[5]; vs saline", "value": "significantly modified the profile of all parameters, except glucagon"}, {"measurement": "total insulin AUC", "setting": "[5]; vs saline", "value": "did not modify"}, {"measurement": "GH AUC", "setting": "[5]; vs saline, p<0.01", "value": "lower"}, {"measurement": "cortisol AUC", "setting": "[5]; vs saline, p<0.01", "value": "lower"}, {"measurement": "free fatty acid (FFA) AUC", "setting": "[5]; vs saline, p<0.01", "value": "decreased"}, {"measurement": "glucose AUC", "setting": "[5]; vs saline, p<0.01", "value": "decreased"}, {"measurement": "early insulin response to dinner and breakfast", "setting": "[5]; dinner p<0.01, breakfast p<0.05", "value": "enhanced"}, {"measurement": "competition with 125I-labeled [Tyr4]-unacylated ghrelin for binding sites", "setting": "HIT-T15 cell membranes", "value": "competed"}, {"measurement": "ghrelin-induced decrease in insulin levels", "setting": "[6]", "value": "totally prevented"}, {"measurement": "ghrelin-induced increase in glucose", "setting": "[6]", "value": "totally prevented"}, {"measurement": "serum-starvation-induced apoptosis", "setting": "HIT-T15 cells [7]; 100 nm, serum-deprived medium", "value": "almost completely prevented"}, {"measurement": "apoptosis triggered by the IFN-γ/TNF-α combination, percent of apoptotic cells", "setting": "HIT-T15 cells [7]; 100 nm, cytokines alone ~27%", "value": "~12", "unit": "%"}, {"measurement": "lowest significantly active concentration, antiapoptotic effect", "setting": "HIT-T15 cells [7]; data not shown", "value": 1, "unit": "nm"}, {"measurement": "caspase-3 activation", "setting": "caspase-3", "value": "significantly reduced"}, {"measurement": "cell proliferation in the presence of IFN-γ/TNF-α", "setting": "HIT-T15 cells [1]; 100 nM, cytokines 100 ng/ml and 200 ng/ml, 24 h", "value": "dramatically restored cell proliferation"}, {"measurement": "cell proliferation (BrdU incorporation)", "setting": "HIT-T15 cells [1]; serum-free medium, 1 pm to 1 μm, 24 h", "value": "significantly and dose-dependently induced cell proliferation"}, {"measurement": "cAMP levels over time", "setting": "cAMP; serum starved cells, 5 to 60 min", "value": "transient increase within 5 min"}, {"measurement": "cAMP at 15 min", "setting": "cAMP; serum-free medium alone or with IFN-γ/TNF-α", "value": "significantly up-regulated cAMP"}]}
{"compound": "ghrelin: gastric hormone of 28 amino acids with an n-octanoyl ester at its third serine residue (GSS(Octanoyl)FLSPEHQRVQQRKESKKPPAKLQPR)", "values": [{"measurement": "Δ glucose", "setting": "[8]", "value": "elevation in glucose"}, {"measurement": "Δ insulin", "setting": "[8]", "value": "acute decrease in insulin"}]}
{"compound": "pertussis toxin [reference compound]", "values": [{"measurement": "effect on unacylated ghrelin-induced cell proliferation", "setting": "HIT-T15 cells [1]", "value": "had no effect"}]}
